Test [1] deals with Substance-P receptor (Homo sapiens, UniProt P25103). The test can be described thus: Binding affinity in membrane preparations containing recombinant human Tachykinin receptor 1 in CHO cells by using [3H]-Sar SP as the radioligand. It is filed as cell membranes.
In test [2] the target is T1, Substance-K receptor (Homo sapiens, UniProt P21452).
T1 sequence (P21452 whole entry): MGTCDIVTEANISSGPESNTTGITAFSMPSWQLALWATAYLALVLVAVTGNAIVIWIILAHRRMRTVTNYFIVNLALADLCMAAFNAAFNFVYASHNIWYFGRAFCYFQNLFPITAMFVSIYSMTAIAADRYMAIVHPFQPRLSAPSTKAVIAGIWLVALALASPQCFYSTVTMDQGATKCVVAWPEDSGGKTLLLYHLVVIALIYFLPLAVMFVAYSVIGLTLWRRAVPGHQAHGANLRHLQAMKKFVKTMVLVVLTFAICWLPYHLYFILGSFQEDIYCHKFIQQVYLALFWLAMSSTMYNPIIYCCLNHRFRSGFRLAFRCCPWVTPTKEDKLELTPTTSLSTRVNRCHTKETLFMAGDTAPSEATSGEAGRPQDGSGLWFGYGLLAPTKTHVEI
The test can be described thus: Binding affinity in membrane preparations containing recombinant human Tachykinin receptor 2 in CHO cells by using [3H]NKA as the radioligand. The test is classed as cell membranes.

Test [3] deals with T2, Substance-K receptor (Mesocricetus auratus, UniProt P51144).
T2 sequence (P51144 whole entry): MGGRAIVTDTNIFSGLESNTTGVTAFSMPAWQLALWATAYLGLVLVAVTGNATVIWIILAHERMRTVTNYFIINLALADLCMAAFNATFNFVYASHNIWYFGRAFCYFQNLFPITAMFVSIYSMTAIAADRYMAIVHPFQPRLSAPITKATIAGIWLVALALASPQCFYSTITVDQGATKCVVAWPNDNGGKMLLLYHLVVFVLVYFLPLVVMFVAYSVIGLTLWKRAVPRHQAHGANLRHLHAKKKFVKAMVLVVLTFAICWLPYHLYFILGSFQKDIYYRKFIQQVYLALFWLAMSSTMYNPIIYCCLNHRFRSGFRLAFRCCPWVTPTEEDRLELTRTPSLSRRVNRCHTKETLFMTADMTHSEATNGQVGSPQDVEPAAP
The test can be described thus: Inhibition of NKA-induced airway contraction of isolated hamster trachea (ht) was used as a measure of NK2-receptor antagonist activity. The test is classed as functional, tissue-based. Conditions: read-out: pA2 (converted).

For test [4], the target named is Substance-P receptor (Cavia porcellus, UniProt P30547). The test can be described thus: Inhibition of the SP-induced NK1-mediated enhancement of the EFS-induced sympathetic neurogenic contractions of gpvd, used as a measure of antagonist activity. It is filed as functional. The note with it: read-out: pA2 (converted).
Sequence of Substance-P receptor (Cavia porcellus, UniProt P30547) (P30547 whole entry): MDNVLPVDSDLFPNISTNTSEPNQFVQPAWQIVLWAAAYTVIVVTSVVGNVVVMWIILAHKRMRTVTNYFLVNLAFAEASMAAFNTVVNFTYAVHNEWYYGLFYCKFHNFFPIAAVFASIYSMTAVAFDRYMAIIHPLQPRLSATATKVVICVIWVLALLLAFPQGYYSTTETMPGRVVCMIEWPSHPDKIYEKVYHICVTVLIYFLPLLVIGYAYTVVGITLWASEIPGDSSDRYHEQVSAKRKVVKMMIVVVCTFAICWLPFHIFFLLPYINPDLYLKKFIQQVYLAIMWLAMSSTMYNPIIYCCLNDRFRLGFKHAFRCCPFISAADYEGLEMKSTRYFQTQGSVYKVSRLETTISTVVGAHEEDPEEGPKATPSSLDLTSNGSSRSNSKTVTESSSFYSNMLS

33 molecules from ChEMBL document CHEMBL1134946, “Synthesis and NK(1)/NK(2) binding activities of a series of diacyl-substituted 2-arylpiperazines” (Bioorg Med Chem Lett, 2002) can be followed below.

Molecules are shown by their SMILES.

Sequence of Substance-P receptor (Homo sapiens, UniProt P25103) (P25103 whole entry): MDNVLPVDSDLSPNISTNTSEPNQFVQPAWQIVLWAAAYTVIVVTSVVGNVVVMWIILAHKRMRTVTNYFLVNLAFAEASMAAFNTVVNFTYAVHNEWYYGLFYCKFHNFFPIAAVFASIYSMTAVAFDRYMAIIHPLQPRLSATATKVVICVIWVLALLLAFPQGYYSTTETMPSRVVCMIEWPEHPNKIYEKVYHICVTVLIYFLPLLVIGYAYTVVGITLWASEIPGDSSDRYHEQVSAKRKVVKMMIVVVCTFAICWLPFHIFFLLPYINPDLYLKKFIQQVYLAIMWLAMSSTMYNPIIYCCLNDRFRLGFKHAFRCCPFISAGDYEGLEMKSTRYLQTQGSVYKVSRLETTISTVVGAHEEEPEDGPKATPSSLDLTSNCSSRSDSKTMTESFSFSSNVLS

What is called Ki is the equilibrium dissociation constant of an inhibitor or competing ligand from its target. With `COc1cc(CC(=O)N2CCN(C(=O)CNC3CCN(Cc4ccccc4)CC3)C(c3ccc(Cl)c(Cl)c3)C2)cc(OC)c1OC` (centres undefined), the Ki at Substance-P receptor [1] and on Substance-K receptor [2] was more than 1000 nM throughout.

`Cc1cc(C)cc(C(=O)N2CCN(C(=O)CNC3CCN(C(=O)[C@@H](N)c4ccccc4)CC3)[C@H](c3ccc(Cl)c(Cl)c3)C2)c1`: the results for the Ki on Substance-P receptor [1] and on Substance-K receptor [2] were 42 nM and 1.1 nM, respectively.

For `Cc1cc(C)cc(C(=O)N2CCN(C(=O)CNC3CCNCC3)[C@H](c3ccc(Cl)c(Cl)c3)C2)c1`, the Ki at Substance-P receptor [1] was found to be 215 nM; on Substance-K receptor [2] it was 20 nM.

Take `CN1CCN(C(=O)CNC2CCN(Cc3ccccc3)CC2)C(c2ccccc2)C1` (centres undefined): the results for the Ki on Substance-P receptor [1] and at Substance-K receptor [2] were 135 nM and more than 1000 nM, respectively.

For `O=C(c1cc(Br)cc(Br)c1)N1CCN(C(=O)CNC2CCN(Cc3ccccc3)CC2)C(c2ccc(Cl)c(Cl)c2)C1` (centres undefined), the figures for the Ki at Substance-P receptor [1] and at Substance-K receptor [2] were 3.2 nM and 14 nM, respectively.

`Cc1cc(C)cc(C(=O)N2CCN(C(=O)CNC3CCN(C(=O)[C@@H](N)Cc4ccccc4)CC3)[C@H](c3ccc(Cl)c(Cl)c3)C2)c1`: the inhibitory constant (Ki) is 21 nM at Substance-P receptor [1] and 3.2 nM at Substance-K receptor [2].

In the case of `Cc1cc(C)cc(C(=O)N2CCN(C(=O)CNC3CCN(Cc4cc[nH]c4)CC3)[C@H](c3ccc(Cl)c(Cl)c3)C2)c1`, the values for the Ki at Substance-P receptor [1] and on Substance-K receptor [2] were 35 nM and 1.3 nM, respectively.

Regarding `Cc1cc(C)cc(C(=O)N2CCN(C(=O)CNC3CCN(C(=O)[C@H](N)c4ccccc4)CC3)[C@H](c3ccc(Cl)c(Cl)c3)C2)c1`, the results for the Ki on Substance-P receptor [1] and on Substance-K receptor [2] were 143 nM and 16 nM, respectively.

With `O=C(Cc1cc(C(F)(F)F)cc(C(F)(F)F)c1)N1CCN(C(=O)CNC2CCN(Cc3ccccc3)CC2)C(c2ccccc2)C1` (centres undefined), the results for the inhibition constant Ki on Substance-P receptor [1] and on Substance-K receptor [2] were 136 nM and more than 1000 nM, respectively.

`O=C(c1cc(F)cc(F)c1)N1CCN(C(=O)CNC2CCN(Cc3ccccc3)CC2)C(c2ccc(Cl)c(Cl)c2)C1` (centres undefined): the Ki at Substance-P receptor [1] amounted to 23 nM; at Substance-K receptor [2] it was 22 nM.

For the molecule `CC(=O)Nc1nc(CN2CCC(NCC(=O)N3CCN(C(=O)c4cc(C)cc(C)c4)C[C@H]3c3ccc(Cl)c(Cl)c3)CC2)cs1`, the Ki was found to be 52 nM at Substance-P receptor [1] and 0.9 nM on Substance-K receptor [2].

In the case of `Cc1cc(C)cc(C(=O)N2CCN(C(=O)CNC3CCN(Cc4ncc[nH]4)CC3)[C@H](c3ccc(Cl)c(Cl)c3)C2)c1`, the Ki at Substance-P receptor [1] turned out to be 92 nM; on Substance-K receptor [2] it was 3 nM.

In the case of `Cc1cc(C)cc(C(=O)N2CCN(C(=O)CNC3CCN(C(=O)[C@H](N)Cc4c[nH]c5ccccc45)CC3)[C@H](c3ccc(Cl)c(Cl)c3)C2)c1`, the Ki stood at 70 nM on Substance-P receptor [1] and 28 nM on Substance-K receptor [2].

Turning to `Cc1cc(C)cc(C(=O)N2CCN(C(=O)CNC3CCN(C(=O)[C@H](N)Cc4ccccc4)CC3)[C@H](c3ccc(Cl)c(Cl)c3)C2)c1`, the Ki on Substance-P receptor [1] came to 11 nM; on Substance-K receptor [2], 1.1 nM.

With `CC(=O)Nc1ccc(CN2CCC(NCC(=O)N3CCN(C(=O)c4cc(C)cc(C)c4)C[C@H]3c3ccc(Cl)c(Cl)c3)CC2)cc1`, the Ki on Substance-P receptor [1] is 15 nM; at Substance-K receptor [2] it was 1.3 nM.

Regarding `O=C(c1cc(Cl)cc(Cl)c1)N1CCN(C(=O)CNC2CCN(Cc3ccccc3)CC2)C(c2ccc(Cl)c(Cl)c2)C1` (centres undefined), the Ki on Substance-P receptor [1] was 7.7 nM; at Substance-K receptor [2], 14 nM.

`Cc1cc(C)cc(C(=O)N2CCN(C(=O)CNC3CCN(Cc4ccccc4)CC3)C(c3ccc(Cl)c(Cl)c3)C2)c1` (centres undefined): the Kb at Substance-K receptor [3] and on Substance-P receptor [4] was 316 nM each time.

On to `O=C(CNC1CCN(Cc2ccccc2)CC1)N1CCN(Cc2cc(C(F)(F)F)cc(C(F)(F)F)c2)CC1c1ccc(Cl)c(Cl)c1` (centres undefined), for which the Ki on Substance-P receptor [1] was 30 nM; at Substance-K receptor [2] it was 175 nM.

In the case of `O=C(CN1CCC(O)(c2ccccc2)CC1)N1CCN(Cc2cc(C(F)(F)F)cc(C(F)(F)F)c2)CC1c1ccccc1` (centres undefined), the Ki at Substance-P receptor [1] is 13 nM; on Substance-K receptor [2] it was more than 1000 nM.

`O=C(CN1CCC(Cc2ccccc2)CC1)N1CCN(Cc2cc(C(F)(F)F)cc(C(F)(F)F)c2)CC1c1ccc(Cl)c(Cl)c1` (centres undefined): the Ki was 110 nM on Substance-P receptor [1] and more than 1000 nM at Substance-K receptor [2].

For `CC(=O)NC1(c2ccccc2)CCN(CC(=O)N2CCN(Cc3cc(C(F)(F)F)cc(C(F)(F)F)c3)CC2c2ccccc2)CC1` (centres undefined), the Ki at Substance-P receptor [1] was 48 nM; on Substance-K receptor [2], more than 1000 nM.

In the case of `COc1cc(C(=O)N2CCN(C(=O)CNC3CCN(Cc4ccccc4)CC3)C(c3ccc(Cl)c(Cl)c3)C2)cc(OC)c1OC` (centres undefined), the results for the Ki at Substance-P receptor [1] and on Substance-K receptor [2] were 112 nM and 124 nM, respectively.

With `COc1cc(OC)cc(C(=O)N2CCN(C(=O)CNC3CCN(Cc4ccccc4)CC3)C(c3ccc(Cl)c(Cl)c3)C2)c1` (centres undefined), the inhibition constant Ki on Substance-P receptor [1] was 7.1 nM; on Substance-K receptor [2], 27 nM.

For `Cc1cc(C)cc(C(=O)N2CCN(C(=O)CNC3CCN(C(=O)[C@H](N)Cc4ccc(O)cc4)CC3)[C@H](c3ccc(Cl)c(Cl)c3)C2)c1`, the Ki on Substance-P receptor [1] was found to be 32 nM; at Substance-K receptor [2], 7 nM.

With `Cc1cc(C)cc(C(=O)N2CCN(C(=O)CNC3CCN(Cc4ccccc4)CC3)[C@@H](c3ccc(Cl)c(Cl)c3)C2)c1`, the Kb at Substance-P receptor [4] is 6.31 nM.

For `O=C(CN1CCN(Cc2ccccc2)CC1)N1CCN(Cc2cc(C(F)(F)F)cc(C(F)(F)F)c2)CC1c1ccc(Cl)c(Cl)c1` (centres undefined), the Ki on Substance-P receptor [1] was 28 nM; at Substance-K receptor [2], more than 1000 nM.

Regarding `O=C(CN1CCN(Cc2ccccc2)CC1)N1CCN(Cc2cc(C(F)(F)F)cc(C(F)(F)F)c2)CC1c1ccccc1` (centres undefined), the Ki on Substance-P receptor [1] is 48 nM; on Substance-K receptor [2] it was more than 1000 nM.

As to `O=C(c1cc(O)cc(O)c1)N1CCN(C(=O)CNC2CCN(Cc3ccccc3)CC2)C(c2ccc(Cl)c(Cl)c2)C1` (centres undefined), the Ki at Substance-P receptor [1] and on Substance-K receptor [2] was more than 1000 nM in each case.

Take `O=C(CN1CCC(Cc2ccccc2)CC1)N1CCN(Cc2cc(C(F)(F)F)cc(C(F)(F)F)c2)CC1c1ccccc1` (centres undefined): the Ki at Substance-P receptor [1] is 37 nM; on Substance-K receptor [2], more than 1000 nM.

Consider `O=C(c1cc(C(F)(F)F)cc(C(F)(F)F)c1)N1CCN(C(=O)CNC2CCN(Cc3ccccc3)CC2)C(c2ccc(Cl)c(Cl)c2)C1` (centres undefined), for which, at Substance-P receptor [4], the Kb was 79.4 nM.

`O=C(CNC1CCN(Cc2ccccc2)CC1)N1CCN(Cc2cc(C(F)(F)F)cc(C(F)(F)F)c2)CC1c1ccccc1` (centres undefined): the inhibition constant Ki at Substance-P receptor [1] is 17 nM; at Substance-K receptor [2], 300 nM.

On to `O=C(CN1CCC(O)(c2ccccc2)CC1)N1CCN(Cc2cc(C(F)(F)F)cc(C(F)(F)F)c2)CC1c1ccc(Cl)c(Cl)c1` (centres undefined), for which the Ki on Substance-P receptor [1] is 32 nM; on Substance-K receptor [2] it was more than 1000 nM.

Turning to `CC(=O)NC1(c2ccccc2)CCN(CC(=O)N2CCN(Cc3cc(C(F)(F)F)cc(C(F)(F)F)c3)CC2c2ccc(Cl)c(Cl)c2)CC1` (centres undefined), the Ki at Substance-P receptor [1] is 148 nM; at Substance-K receptor [2], more than 1000 nM.
